Results as given in patent US5910575A, “Immunoassay and monoclonal antibodies for urinary cortisol” (Immunotech, priority 1995, dated 1999).

Key:
[1] = target: anti-cortisol monoclonal antibody Immu 482, obtained against the immunogen cortisol-3-CMO (syn)-BSA; assay: Displacement of the cortisol-3-CMO (anti)-[125I] iodohistamine tracer from the monoclonal antibody (liquid phase radioimmunoassay); type: binding, mouse
Protocol: (§1) Selection is carried out by a liquid phase radioimmunoassay technique starting with the culture supernatant. The supernatants possibly containing anti-cortisol antibodies are incubated with a solution of radioactive cortisol (tritiated cortisol or cortisol derivative labelled with radioactive iodine: cortisol-3-CMO (anti)-[^125 I] iodohistamine). If anti-cortisol antibodies are present, they will bind the radioactive steroid. After incubation with charcoal-dextran and centrifugation to remove the free radioactivity and all the small molecules not fixed to the antibodies, a sample of the supernatant (bound fraction) is removed and counted.
(§2) The affinities of the monoclonal antibodies are measured by displacement of the cortisol-3-CMO (anti)-[^125 I] iodohistamine tracer with the two labelling precursors: cortisol-3-CMO (anti)-histamine and cortisol-3-CMO (syn)-histamine. The affinity is estimated (in the form of the IC50 value) according to the concentration displacing half of the tracer, since the tracer is present in a small quantity compared with the other constituents.

[2] = target: anti-cortisol monoclonal antibody Immu 473 (IMMU-473, CNCM I-1532), obtained against the immunogen cortisol-3-CMO (syn)-BSA; assay: as above; type: binding, mouse
Protocol: as §1, §2

[3] = tracer cortisol-3-CMO (anti)-[125I] iodohistamine, concentration displacing half of the tracer
[4] = IC50 of cortisol-3-CMO (anti)-histamine divided by IC50 of cortisol-3-CMO (syn)-histamine

Structure (SMILES)	Displacement of the tracer by Cortisol-3-CMO (anti)-histamine IC50 [1, 3]	Displacement of the tracer by Cortisol-3-CMO (anti)-histamine IC50 [2, 3]	Ratio IC50 anti/IC50 syn [1, 4]	Displacement of the tracer by Cortisol-3-CMO (syn)-histamine IC50 [1, 3]	Ratio IC50 anti/IC50 syn [2, 4]	Displacement of the tracer by Cortisol-3-CMO (syn)-histamine IC50 [2, 3]
C[C@]12CC/C(=N\OCC(=O)NCCc3c[nH]cn3)C=C1CC[C@@H]1[C@@H]2[C@@H](O)C[C@@]2(C)[C@H]1CC[C@]2(O)C(=O)CO [Cortisol-3-CMO (anti)-histamine, cortisol-3-carboxymethyloxime (anti)-histamine]	0.468 ng/mL	0.496 ng/mL	–	–	–	–
C[C@]12CC/C(=N/OCC(=O)NCCc3c[nH]cn3)C=C1CC[C@@H]1[C@@H]2[C@@H](O)C[C@@]2(C)[C@H]1CC[C@]2(O)C(=O)CO [Cortisol-3-CMO (syn)-histamine, cortisol-3-carboxymethyloxime (syn)-histamine]	–	–	2.66	0.176 ng/mL	2.73	0.182 ng/mL
